We go through four compounds from patent US12728118B2, “Methods and compositions for the treatment of corneal endothelium disorders” (The Schepens Eye Research Institute, Inc., priority 2020, dated 2026).

“Also recorded” adds a separate entry of the source.

In series [1] the test system is corneal endothelial cell (CEnC). Nature of the series: UVA light-induced CEnC loss in NQO1+/+ and NQO1−/− female mice (mouse model of FECD), HRT imaging. The series is classed as in vivo. As to the method:
A mouse model of FECD was generated by knocking out the NQO1 gene. […] NQO1+/+ and NQO1−/− female mice were irradiated with UVA (500 J/cm^2; time: 20 minutes) to initiate CEnC loss. Either TMS (1 mg/kg) or DMSO (vehicle) was intraperitoneally injected three times a week post-UVA irradiation until week 2 (FIG. 13A). Central corneal thickness (CCT) and Corneal endothelium (CE) imaging was performed using anterior segment-optical coherence tomography (OCT) and Heidelberg Retina Tomograph III (HRT III) prior to UVA irradiation and then at day 1, week 1, week 2, and week 4 post-UVA irradiation. The CE density (cells/mm^2) was quantified by a semi-automated cell counter inbuilt in HRT machine. A mouse model of FECD was generated by knocking out the NQO1 gene. […] NQO1+/+ and NQO1−/− female mice were irradiated with UVA (500 J/cm^2; time: 20 minutes) to initiate CEnC loss. Either berberine (10 mg/kg) or Vehicle (90% PBS+5% Tween-80+5% polyethylene glycol) was intraperitoneally injected immediately after and at week 1 post-UVA irradiation (FIG. 14A). Central corneal thickness (CCT) and corneal endothelium (CE) imaging was performed using anterior segment-optical coherence tomography (AS-OCT) and Heidelberg Retina Tomograph III (HRT III) prior to UVA irradiation and then at day 1, week 1, and week 2, post-UVA irradiation. The CE density (cells/mm^2) was quantified by a semi-automated cell counter inbuilt in HRT machine.

The test system of series [2] is corneal endothelial (CE) cell. Nature of the series: UVA-induced corneal endothelial cell loss in female mice, CYP1B1 inhibitor treatment. The series is classed as in vivo, mouse. As to the method: FIG. 12. […] TMS was injected intraperitoneally (1.5 mg/kg) in female mice 1 h prior to 500 J/cm^2 UVA and 3 times a week thereafter for two weeks. Mice similarly injected with DMSO served as the control (n=5; white bar).

The test system of the next series is MCEnC mtDNA and nDNA. In words: DNA damage analysis using LA-qPCR in MCEnCs after UVA. The series is classed as in vivo, mouse. Particulars: 1,000 J/cm^2 UVA at 3 mo. As to the method: (§1) Experimental Animals. C57BL/6 wild-type mice (male and female, 7 to 15 wk old; The Jackson Laboratory or Charles River) were used for this study. Mice were housed in a climate-controlled animal facility at the Schepens Eye Research Institute (Boston) and kept under cyclic light conditions with 12 h ON or OFF. Mice were anesthetized with a combined dose of ketamine (100 mg/kg) and xylazine (20 mg/kg) administered intraperitoneally. Female mice were irradiated at proestrus stage (61). For the NAC-treated group, mice were fed daily with drinking water containing 1 g of NAC/kg body weight from 1 d prior up to 3 mo post-UVA. All animal experiments were approved by the Institutional Animal Care and Use Committee and adhered to the ARVO Statement for the Use of Animals in Ophthalmic and Vision Research.
(§2) Human Corneal Endothelial Cell Culture. Telomerase and SV40 T antigen immortalized normal human CE cell lines HCEnC-21T and HCEnC-SV-67F-16, respectively, were previously generated in our laboratory (26, 62). […] The energy was measured using a laser sensor (model L49 [150A]; Ophir), and the time of UVA exposure was adjusted to deliver the appropriate fluence (10 min 29 s for 250 J/cm^2, 20 min 57 s for 500 J/cm^2, 31 min 26 s for 750 J/cm^2, and 41 min 54 s for 1,000 J/cm^2). […]
(§3) DNA Damage Analysis Using LA-qPCR. […] DNA lesion frequencies were calculated as described (24). […]

A further series concerns mouse cornea. Nature of the series: UVA-induced FECD mouse model: central corneal thickness (CCT) by OCT. The series is classed as in vivo. How it is done:
as §1
(§4) Human Corneal Endothelial Cell Culture. Telomerase and SV40 T antigen immortalized normal human CE cell lines HCEnC-21T and HCEnC-SV-67F-16, respectively, were previously generated in our laboratory (26, 62). HCEnC-21T cells were seeded in estrogen-free medium (phenol red-free OptiMEM-I; Thermo Fisher Scientific) with charcoal stripped FBS (HyClone), 200 mg/L calcium chloride (Sigma-Aldrich), 0.08% chondroitin sulfate (Sigma-Aldrich) and treated with 15 μM 4-OHE2 (Steraloids) in phenol red-free OptiMEM-I. UVA Irradiation of Mouse Cornea. A UVA LED light source (M365LP1; Thorlabs) with an emission peak of 365 nm light, 9 nm bandwidth (FWHM) and irradiance of 398 mW/cm 2 was focused to illuminate a 4-mm-diameter spot onto the mouse cornea. The energy was measured using a laser sensor (model L49 [150A]; Ophir), and the time of UVA exposure was adjusted to deliver the appropriate fluence (10 min 29 s for 250 J/cm^2, 20 min 57 s for 500 J/cm^2, 31 min 26 s for 750 J/cm^2, and 41 min 54 s for 1,000 J/cm^2). The right eye (OD) was irradiated while the contralateral eye (OS) was covered with heat retention drapes (SpaceDrapes, Inc.) to serve as untreated control. […]
In vivo Imaging. […] CCT was measured using inbuilt software.

The subject of the next series is MCEnCs. Nature of the series: TUNEL assay on whole mount mouse CE after UVA. Particulars: females and males; 3 mo post-UVA. The series is classed as in vivo. How it is done: as §1, §2
Series [3] concerns mouse corneal endothelial cell (MCEnC). In words: UVA-induced FECD mouse model: corneal endothelial cell density (in vivo confocal HRT / ZO-1 immunostaining). Particulars: for increase in MCEnC density vs 1,000 J/cm^2 UVA irradiation only / MCEnC density: 2 mo, 1,000 J/cm^2 UVA; for increase in MCEnC density vs 1,000 J/cm^2 UVA irradiation only: NAC in drinking water 1 g/kg from 1 d prior. How it is done:
as §1
Human Corneal Endothelial Cell Culture. Telomerase and SV40 T antigen immortalized normal human CE cell lines HCEnC-21T and HCEnC-SV-67F-16, respectively, were previously generated in our laboratory (26, 62). HCEnC-21T cells were seeded in estrogen-free medium (phenol red-free OptiMEM-I; Thermo Fisher Scientific) with charcoal stripped FBS (HyClone), 200 mg/L calcium chloride (Sigma-Aldrich), 0.08% chondroitin sulfate (Sigma-Aldrich) and treated with 15 μM 4-OHE2 (Steraloids) in phenol red-free OptiMEM-I. UVA Irradiation of Mouse Cornea. A UVA LED light source (M365LP1; Thorlabs) with an emission peak of 365 nm light, 9 nm bandwidth (FWHM) and irradiance of 398 mW/cm 2 was focused to illuminate a 4-mm-diameter spot onto the mouse cornea. The energy was measured using a laser sensor (model L49 [150A]; Ophir), and the time of UVA exposure was adjusted to deliver the appropriate fluence (10 min 29 s for 250 J/cm^2, 20 min 57 s for 500 J/cm^2, 31 min 26 s for 750 J/cm^2, and 41 min 54 s for 1,000 J/cm^2). The right eye (OD) was irradiated while the contralateral eye (OS) was covered with heat retention drapes (SpaceDrapes, Inc.) to serve as untreated control. Mouse eyeballs from CYP1B1-null mice (age 8 to 12 wk, 10 females and 10 males) (31) were enucleated, rinsed with phosphate-buffered saline (PBS), and transported on ice, and cornea excision was performed within 24 h of the animal's death. Four 12-inch RPR-3500A UVA tubes (The Southern New England UV Co.) emitting 350 nm light (irradiance: 7.13 mW/cm 2) were used to irradiate the corneoscleral buttons placed in sterile PBS, with the endothelial side facing the source. The fluence delivered was 25 J/cm^2 (58 min 24 s at a distance of 10 cm). Irradiated corneas were snap-frozen, homogenized using a tissue grinder, and dissolved in methanol:water (2:1) for estrogen metabolite analysis.
The mouse was wrapped with heat retention drapes on the platform that holds the mouse body securely for imaging CE cells by laser scanning IVCM using the Heidelberg Retina Tomograph III (HRT III) with Rostock Corneal Module (RCM) (Heidelberg Engineering). The laser confocal microscope acquires 2D images that represent a coronal section of the cornea of 400×400 μm (160,000 μm^2) at a selectable corneal depth. Acquired images comprise 384×384 pixels and with a lateral resolution of 1 μm per pixel. Digital images were stored on a computer workstation at 3 frames per second.
Analysis of CE Cell Density. The CE density of HRT images acquired before UVA and post-UVA at 2 wk and 1 and 2 mo was analyzed by a semiautomated cell counter in the software Heidelberg Eye Explorer, version 1.3.0 (Heidelberg Engineering GmbH) inbuilt in HRT3. The mean cell density was calculated from 3 mice whose HRT images were counted by at least 2 observers. For each image, an area with at least 50 cells was selected. For CE density calculated from the images of 3 mice with ZO-1 immunostaining, cell count was performed manually by 2 blinded observers using a plug-in for ImageJ 1.46r (https://imagescience.org/meijering/software/imagescience; provided in the public domain by Wayne Rasband, NIH). […]

The test system of a further series is mouse aqueous humor. Nature of the series: ROS production assay (H2O2, Amplex Red) in mouse aqueous humor after UVA. The series is classed as in vivo. Conditions: 1 d post-UVA. How it is done:
as §1, with “All animal experiments were approved by the Institutional Animal Care and Use Committee and adhered to the ARVO Statement for the Use of Animals in Ophthalmic and Vision Research.” left out
Human Corneal Endothelial Cell Culture. […] The energy was measured using a laser sensor (model L49 [150A]; Ophir), and the time of UVA exposure was adjusted to deliver the appropriate fluence (10 min 29 s for 250 J/cm^2, 20 min 57 s for 500 J/cm^2, 31 min 26 s for 750 J/cm^2, and 41 min 54 s for 1,000 J/cm^2). […]
ROS Production Assay. Extracellular H2O2 levels in the mouse aqueous humor (3 μL), collected using a capillary needle from the dilated mouse anterior chamber, were detected using the Amplex Red Assay Kit (Molecular Probes, Life Technologies) according to manufacturer's instructions. Fluorescence was measured with excitation and emission at 550 and 590 nm, respectively, using a microplate reader (Bio-Tek) with Gen5 software at 37° C.

Another series has as its system HCEnC-21T cells. In words: LA-qPCR DNA lesion analysis in HCEnC-21T cells treated with 4-OHE2. Particulars: 15 μM 4-OHE2; 24 h. The series is classed as cell-based, human. How it is done: as §4, §3
(Real-time PCR tracks product formation cycle by cycle.)

In the case of `COc1ccc2cc3[n+](cc2c1OC)CCc1cc2c(cc1-3)OCO2` [berberine], the “morphology of CEnC vs vehicle” value in series [1] (NQO1+/+ and NQO1−/− female mice, berberine 10 mg/kg ip, week 2 post-UVA 500 J/cm^2) was “less irregular morphology”. The “CEnC number vs vehicle” value in series [1] (NQO1+/+ females, berberine 10 mg/kg ip, week 2 post-UVA) was “trend towards higher CEnC number”; in series [1] (NQO1−/− females, berberine 10 mg/kg ip, week 2 post-UVA), “significantly higher CEnC number”. The “UVA light-induced CEnC loss” value in series [1] (berberine 10 mg/kg, mouse model of Fuchs Dystrophy (FIG. 14 title)) is given as “rescues UVA light-induced CEnC loss”.
For `COc1cc(/C=C/c2ccc(OC)cc2OC)cc(OC)c1` [TMS, trans-2,3′,4,5′-tetramethoxystilbene], in series [2] (1 week, 2 weeks and 1 month post 500 J/cm^2, 1.5 mg/kg intraperitoneally 1 h prior and 3 times a week for two weeks, vs DMSO, p<0.05), the “corneal endothelial cell loss” value was “Rescue of corneal endothelial cell loss”. The “endothelial cell degeneration / UVA-induced corneal endothelial cell loss” value in series [2] (mouse model of FECD, in vivo (FIGS. 11 and 12)) is reported as “delayed the endothelial cell degeneration; also recorded: Rescue of UVA-induced corneal endothelial cell loss”. In addition, the “morphology of CEnC vs vehicle” value in series [1] (NQO1+/+ and NQO1−/− female mice, TMS 1 mg/kg ip three times a week, weeks 2 and 4 post-UVA 500 J/cm^2) is recorded as “less irregular morphology”. In addition, in series [1] (NQO1+/+ and NQO1−/− female mice, TMS 1 mg/kg ip, weeks 2 and 4 post-UVA 500 J/cm^2), the “CEnC number vs vehicle” value is on record as “higher CEnC number; also recorded: reduces CEnC loss”.
On to `CC(=O)N[C@@H](CS)C(=O)O` [NAC, N-acetylcysteine], for which the nDNA damage result in the series on MCEnC mtDNA and nDNA (both sexes) was “significantly rescued”. Further, the mtDNA damage entry in the series with MCEnC mtDNA and nDNA (females) was “persisted”. In the series on mouse cornea (1 to 3 mo after 1,000 J/cm^2 UVA), the CCT result was “remained close to the untreated baseline”. The “CCT vs 1,000 J/cm^2 treated females” value in the series with mouse cornea (females, 1, 2, and 3 mo after 1,000 J/cm^2 UVA) is on record as “significant decrease in CCT”. The “CCT vs 1,000 J/cm^2 treated males” value with mouse cornea (males, 2 wk and 1 and 3 mo after 1,000 J/cm^2 UVA) is “significant decrease in CCT”. Besides, the “TUNEL-positive cells vs non-NAC-treated UVA irradiated mice” value in the series on MCEnCs is “significantly less TUNEL-positive cells”. Besides, the “morphological and molecular changes induced by UVA” value in series [3] (UVA 1000 J/cm^2, in vivo (FIG. 10)) is recorded as “rescued”. In addition, the “increase in MCEnC density vs 1,000 J/cm^2 UVA irradiation only” value in series [3] (females) was determined as 1.7 fold; in series [3] (males), 1.6 fold. Also, the MCEnC density was 1,521±313 cells per square millimeter in series [3] (females, no-NAC 855±115) and 1,560±136 cells per square millimeter in series [3] (males, no-NAC 944±136). The endothelial cell density entry in series [3] (male and female, 3 mo after UVA, ZO-1 immunostaining) is reported as “significantly rescued”. For the same compound, the “ROS formed due to UVA (H2O2 in aqueous humor)” value in the series on mouse aqueous humor is “significantly reduced”.
Take `C[C@]12CC[C@@H]3c4ccc(O)c(O)c4CC[C@H]3[C@@H]1CC[C@@H]2O` [4-OHE2, 4-hydroxyestradiol]: in the series on HCEnC-21T cells, the “DNA lesions in the nuclear encoded β-globin gene” value is recorded as 0.46 DNA lesions per 10 kb and the mtDNA lesions is recorded as 0.65 DNA lesions per 10 kb.
